Patent publication US20020173491A1, “DAPD combination therapy with inosine monophosphate dehydrogenase inhibitor” (priority 2000, published 2002)
Where two headings read alike, the source gives them in different places.

How the values were obtained:
HIV-1 mutant L74V = assay: MT2/XTT combination assay, resistant virus L74V; format: cell-based; conditions: for EC50: Human immunodeficiency virus 1, L74V; for fold difference from WT: L74V
Method: (§1) Triplicate samples of compound were tested. MT2 cells were infected with xxLAI at a multiplicity of infection (MOI) of 0.03 for 3 hours at 37° C. in 5% CO2. The infected cells were plated at 3.0×10^4/well into a 96 well plated containing drug dilutions and incubated for 5 days at 37° C. in CO2. […] This method has been modified into a susceptibility assay and has been used in a variety of in vitro antiviral tests and is readily adaptable to any system with a lytic virus (Weislow, O. S., et. al. 1989). Using the absorption values of the cell controls as 100% protection and no drug, virus infected cells as 0% protection, a dose response curve is generated by plotting % protection on the Y axis and drug concentration on the X axis. From this curve EC50 values were determined.
(§2) Assays were performed in the MT2 cell line as described above in the XXT sensitivity assay section.
(§3) The restraint strains analyzed included viruses created by site directed mutagenesis, K65R and L74V, as well as a recombinant virus containing mutations at positions 98S, 116Y, 151M and 215Y. The wild type backbone in which these mutants were created, xxLAI, was also analyzed for comparison. The concentrations of DAPD and DXG tested were as described in the above MT2/XTT combination assay section.
(§4) The concentrations of MPA used were 1, 0.5, 0.25, 0.1, and 0.01 μM. Assays were performed in the MT2 cell line as described in section 3.1.
as §3, with “section 4.1. MPA was tested in” for “the above MT2/XTT”, “with DAPD and DXG at a fixed concentration of 0.25 μM.” for “assay section.”

xxLAI strain of HIV-1 = assay: microbe, parasite or virus in culture; format: cell-based; conditions: for Fold difference in EC50, 0.1 μM MPA: control vs with 0.1 μM MPA; for Fold difference in EC50, 0.25 μM MPA: control vs with 0.25 μM MPA (fold decrease); for Fold difference in EC50, 1 μM RBV: control vs with 1 μM RBV; for Fold difference in EC50, 5 μM RBV: control vs with 5 μM RBV; for Fold difference in EC50, 10 μM RBV: control vs with 10 μM RBV; for Fold difference in EC50, 20 μM RBV: control vs with 20 μM RBV (fold decrease)
Method: as §1, §2
MPA was tested for activity against the xxLAI strain of HIV-1 in the laboratory adapted cell line MT2. Dilutions of MPA were made in cell culture media in a 96 well plate; the highest concentration tested was 1 μM. Triplicate samples of compound were tested. MT2 cells were infected with xxLAI at a multiplicity of infection (MOI) of 0.03 for 3 hours at 37° C. in 5% CO2. The infected cells were plated at 3.0×10^4/well into a 96 well plated containing drug dilutions and incubated for 5 days at 37° C. in CO2. The antiviral activity of MPA was determined using the XTT assay described above. This method has been modified into a susceptibility assay and has been used in a variety of in vitro antiviral tests and is readily adaptable to any system with a lytic virus (Weislow, O. S., et. al. 1989). Using the absorption values of the cell controls as 100% protection and no drug, virus infected cells as 0% protection, a dose response curve is generated by plotting % protection on the Y axis and drug concentration on the X axis. From this curve EC50 values were determined.
as §4

[1] = Human immunodeficiency virus 1, MT2, read-out: Mean EC50, Control, MT2 cells, no MPA
[2] = Human immunodeficiency virus 1, MT2, read-out: Mean EC50, Control, MT2 cells, no RBV
[3] = read-out: Mean EC50, 0.01 μM MPA, MT2 cells, with 0.01 μM MPA
[4] = read-out: Mean EC50, 0.1 μM MPA, MT2 cells, with 0.1 μM MPA
[5] = read-out: Mean EC50, 0.25 μM MPA, MT2 cells, with 0.25 μM MPA
[6] = read-out: Mean EC50, 1 μM RBV, MT2 cells, with 1 μM RBV
[7] = read-out: Mean EC50, 5 μM RBV, MT2 cells, with 5 μM RBV
[8] = read-out: Mean EC50, 10 μM RBV, MT2 cells, with 10 μM RBV
[9] = read-out: Mean EC50, 20 μM RBV, MT2 cells, with 20 μM RBV

Structure (SMILES)	EC50 (HIV-1 mutant L74V; compound alone (Table 4)) [µM]	EC50 (HIV-1 mutant L74V; compound alone (Table 10)) [µM]	fold difference from WT (HIV-1 mutant L74V; compound alone (Table 4))	fold difference from WT (HIV-1 mutant L74V; compound alone (Table 10)) [fold]	EC50 (xxLAI strain of HIV-1; [1]) [µM]	EC50 (xxLAI strain of HIV-1; [2]) [µM]	Fold difference in EC50, 0.1 μM MPA (xxLAI strain of HIV-1; MT2 cells) [fold]	Fold difference in EC50, 0.25 μM MPA (xxLAI strain of HIV-1; MT2 cells) [fold]	Fold difference in EC50, 1 μM RBV (xxLAI strain of HIV-1; MT2 cells) [fold]	Fold difference in EC50, 5 μM RBV (xxLAI strain of HIV-1; MT2 cells) [fold]	Fold difference in EC50, 10 μM RBV (xxLAI strain of HIV-1; MT2 cells) [fold]	Fold difference in EC50, 20 μM RBV (xxLAI strain of HIV-1; MT2 cells) [fold]	EC50 (xxLAI strain of HIV-1; [3]) [µM]	EC50 (xxLAI strain of HIV-1; [4]) [µM]	EC50 (xxLAI strain of HIV-1; [5]) [µM]	EC50 (xxLAI strain of HIV-1; [6]) [µM]	EC50 (xxLAI strain of HIV-1; [7]) [µM]	EC50 (xxLAI strain of HIV-1; [8]) [µM]	EC50 (xxLAI strain of HIV-1; [9]) [µM]
Nc1nc(N)c2ncn(C3COC(CO)O3)c2n1 (single isomer, unassigned; (-)) [DAPD]	34	39	(4) fold	4.9	20	18.5	4.1	16.7	2.25	6.4	11.56	14.2	22	4.9	1.2	8.2	2.9	1.6	1.3
Nc1nc2c(ncn2C2COC(CO)O2)c(=O)[nH]1 (single isomer, unassigned; (-)) [DXG]	4.5	3.8	5.6 fold	4.2	2.1	2.65	3.5	10.5	1.29	4.57	5.3	12	2.5	0.6	0.2	2.05	0.58	0.5	0.22
